In ChEMBL document CHEMBL1129654, “2-Carbomethoxy-3-(diarylmethoxy)-1 alpha H, 5 alpha H-tropane analogs: synthesis and inhibition of binding at the dopamine transporter and comparison with piperazines of the GBR series” (J Med Chem, 1996):

target: Sodium-dependent serotonin transporter; experiment: Inhibition of [3H]citalopram binding to the serotonin transporter in the cynomolgus (macaca fascicularis) monkey caudate-putamen.; format: tissue-based, Cercopithecidae

Compound | IC50 [µM]
COC(=O)C1C2CCC(C[C@@H]1OC(c1ccccc1)c1ccccc1)N2C (stereo partly drawn) | 10.1
COC(=O)C1C2CCC(C[C@@H]1OC(c1ccc(F)cc1)c1ccc(F)cc1)N2CCCc1ccc(Br)cc1 (stereo partly drawn) | 0.234
COC(=O)C1C2CCC(C[C@@H]1OC(c1ccccc1)c1ccc(I)cc1)N2C (stereo partly drawn) | 9.28
COC(=O)C1C2CCC(C[C@@H]1OC(c1ccc(Br)cc1)c1ccc(I)cc1)N2C (stereo partly drawn) | 4.39
COC(=O)C1C2CCC(C[C@@H]1OC(c1ccc(I)cc1)c1ccc(I)cc1)N2C (stereo partly drawn) | 8.55
CCC(O[C@H]1CC2CCC(C1C(=O)OC)N2C)c1ccccc1 (stereo partly drawn) | 21
COC(=O)C1C2CCC(C[C@@H]1OC(c1ccccc1)c1ccc(F)cc1)N2C (stereo partly drawn) | 4.93
COC(=O)C1C2CCC(C[C@@H]1OC(c1ccccc1)c1ccc(Cl)cc1)N2C (stereo partly drawn) | 5.96
COC(=O)C1C2CCC(C[C@@H]1OC(c1ccc(C)cc1)c1ccc(C)cc1)N2C (stereo partly drawn) | 9.8
COC(=O)C1C2CCC(C[C@@H]1OC(c1ccccc1)c1ccc(C)cc1)N2C (stereo partly drawn) | 13.2
COC(=O)C1C2CCC(C[C@@H]1OC(c1ccc(F)cc1)c1ccc(F)cc1)N2CCCc1ccccc1 (stereo partly drawn) | 0.0197
COC(=O)C1C2CCC(C[C@@H]1OC(c1ccccc1)c1ccc(Br)cc1)N2C (stereo partly drawn) | 5.77
COC(=O)C1C2CCC(C[C@@H]1OC(c1ccc(Cl)cc1)c1ccc(Cl)cc1)N2C (stereo partly drawn) | 3.36
COC(=O)C1C2CCC(C[C@@H]1OC(c1ccc(F)cc1)c1ccc(F)cc1)N2CCCCCc1ccccc1 (stereo partly drawn) | 0.55
COC(=O)C1C2CCC(C[C@@H]1OC(c1ccc(F)cc1)c1ccc(F)cc1)N2CCCc1ccc(I)cc1 (stereo partly drawn) | 2.2
CN1C2CCC1CC(OC(c1ccc(F)cc1)c1ccc(F)cc1)C2 (stereo not drawn) [DIFLUOROBENZTROPINE] | 5.34
COC(=O)C1C2CCC(C[C@@H]1OC1c3ccccc3-c3ccccc31)N2C (stereo partly drawn) | 3.44
COC(=O)C1C2CC[C@@H](C[C@@H]1OC(c1ccc(F)cc1)c1ccc(F)cc1)N2C (stereo partly drawn) | 3.53
COC(=O)C1C2CCC(C[C@@H]1OC(c1ccc(F)cc1)c1ccc(F)cc1)N2Cc1ccccc1 (stereo partly drawn) | 4.97
COC(=O)C1C2CCC(C[C@@H]1OC(c1ccc(Br)cc1)c1ccc(Br)cc1)N2C (stereo partly drawn) | 2.43

target: not listed separately; experiment: Inhibition of [3H]WIN-35428 binding to the dopamine transporter in the cynomolgus (macaca fascicularis) monkey caudate-putamen.

Compound | IC50 [µM]
COC(=O)C1C2CCC(C[C@@H]1OC(c1ccc(Br)cc1)c1ccc(I)cc1)N2C (stereo partly drawn) | 0.389
COC(=O)C1C2CCC(C[C@@H]1OC(c1ccccc1)c1ccc(F)cc1)N2C (stereo partly drawn) | 0.0132
COC(=O)C1C2CCC(C[C@@H]1OC(c1ccc(C)cc1)c1ccc(C)cc1)N2C (stereo partly drawn) | 0.24
COC(=O)C1C2CCC(C[C@@H]1OC(c1ccccc1)c1ccc(Br)cc1)N2C (stereo partly drawn) | 0.024
COC(=O)C1C2CCC(C[C@@H]1OC(c1ccc(Cl)cc1)c1ccc(Cl)cc1)N2C (stereo partly drawn) | 0.0914
COC(=O)C1C2CCC(C[C@@H]1OC(c1ccc(F)cc1)c1ccc(F)cc1)N2CCCCCc1ccccc1 (stereo partly drawn) | 0.099
COC(=O)C1C2CCC(C[C@@H]1OC(c1ccc(F)cc1)c1ccc(F)cc1)N2CCCc1ccc(I)cc1 (stereo partly drawn) | 0.119
COC(=O)C1C2CCC(C[C@@H]1OC1c3ccccc3-c3ccccc31)N2C (stereo partly drawn) | 6.03
